Measured values from patent US8673856B2 (Anygen Co., Ltd., priority 2006, dated 2014).

How the values were obtained:
[1] = target: T1, human N-type calcium channel (Homo sapiens, UniProt Q00975); assay type: cell-based
T1 construct: expressed in transfected cells; host or cells: HEK 293 (human embryonic kidney) cells

[2] = target: T1, human N-type calcium channel; assay type: cell-based; remark: listed apart in the source
Sprague-Dawley male rats [3] = details: rat, in vivo
ICR mice [4] = details: mouse, in vivo
Sprague-Dawley male rats [5] = details: rat, in vivo; remark: listed apart in the source
ICR mice [6] = details: mouse, in vivo; remark: listed apart in the source
ICR mice [7] = details: mouse, in vivo; remark: listed apart in the source
Sprague-Dawley male rats [8] = details: rat, in vivo, iv
ICR mice [9] = details: mouse, in vivo, ip
ICR mice [10] = details: mouse, in vivo; remark: listed apart in the source
Sprague-Dawley male rats [11] = details: rat, in vivo; remark: listed apart in the source
ICR mice [12] = details: mouse, in vivo; remark: listed apart in the source

T1 sequence (Q00975 whole entry, looked up): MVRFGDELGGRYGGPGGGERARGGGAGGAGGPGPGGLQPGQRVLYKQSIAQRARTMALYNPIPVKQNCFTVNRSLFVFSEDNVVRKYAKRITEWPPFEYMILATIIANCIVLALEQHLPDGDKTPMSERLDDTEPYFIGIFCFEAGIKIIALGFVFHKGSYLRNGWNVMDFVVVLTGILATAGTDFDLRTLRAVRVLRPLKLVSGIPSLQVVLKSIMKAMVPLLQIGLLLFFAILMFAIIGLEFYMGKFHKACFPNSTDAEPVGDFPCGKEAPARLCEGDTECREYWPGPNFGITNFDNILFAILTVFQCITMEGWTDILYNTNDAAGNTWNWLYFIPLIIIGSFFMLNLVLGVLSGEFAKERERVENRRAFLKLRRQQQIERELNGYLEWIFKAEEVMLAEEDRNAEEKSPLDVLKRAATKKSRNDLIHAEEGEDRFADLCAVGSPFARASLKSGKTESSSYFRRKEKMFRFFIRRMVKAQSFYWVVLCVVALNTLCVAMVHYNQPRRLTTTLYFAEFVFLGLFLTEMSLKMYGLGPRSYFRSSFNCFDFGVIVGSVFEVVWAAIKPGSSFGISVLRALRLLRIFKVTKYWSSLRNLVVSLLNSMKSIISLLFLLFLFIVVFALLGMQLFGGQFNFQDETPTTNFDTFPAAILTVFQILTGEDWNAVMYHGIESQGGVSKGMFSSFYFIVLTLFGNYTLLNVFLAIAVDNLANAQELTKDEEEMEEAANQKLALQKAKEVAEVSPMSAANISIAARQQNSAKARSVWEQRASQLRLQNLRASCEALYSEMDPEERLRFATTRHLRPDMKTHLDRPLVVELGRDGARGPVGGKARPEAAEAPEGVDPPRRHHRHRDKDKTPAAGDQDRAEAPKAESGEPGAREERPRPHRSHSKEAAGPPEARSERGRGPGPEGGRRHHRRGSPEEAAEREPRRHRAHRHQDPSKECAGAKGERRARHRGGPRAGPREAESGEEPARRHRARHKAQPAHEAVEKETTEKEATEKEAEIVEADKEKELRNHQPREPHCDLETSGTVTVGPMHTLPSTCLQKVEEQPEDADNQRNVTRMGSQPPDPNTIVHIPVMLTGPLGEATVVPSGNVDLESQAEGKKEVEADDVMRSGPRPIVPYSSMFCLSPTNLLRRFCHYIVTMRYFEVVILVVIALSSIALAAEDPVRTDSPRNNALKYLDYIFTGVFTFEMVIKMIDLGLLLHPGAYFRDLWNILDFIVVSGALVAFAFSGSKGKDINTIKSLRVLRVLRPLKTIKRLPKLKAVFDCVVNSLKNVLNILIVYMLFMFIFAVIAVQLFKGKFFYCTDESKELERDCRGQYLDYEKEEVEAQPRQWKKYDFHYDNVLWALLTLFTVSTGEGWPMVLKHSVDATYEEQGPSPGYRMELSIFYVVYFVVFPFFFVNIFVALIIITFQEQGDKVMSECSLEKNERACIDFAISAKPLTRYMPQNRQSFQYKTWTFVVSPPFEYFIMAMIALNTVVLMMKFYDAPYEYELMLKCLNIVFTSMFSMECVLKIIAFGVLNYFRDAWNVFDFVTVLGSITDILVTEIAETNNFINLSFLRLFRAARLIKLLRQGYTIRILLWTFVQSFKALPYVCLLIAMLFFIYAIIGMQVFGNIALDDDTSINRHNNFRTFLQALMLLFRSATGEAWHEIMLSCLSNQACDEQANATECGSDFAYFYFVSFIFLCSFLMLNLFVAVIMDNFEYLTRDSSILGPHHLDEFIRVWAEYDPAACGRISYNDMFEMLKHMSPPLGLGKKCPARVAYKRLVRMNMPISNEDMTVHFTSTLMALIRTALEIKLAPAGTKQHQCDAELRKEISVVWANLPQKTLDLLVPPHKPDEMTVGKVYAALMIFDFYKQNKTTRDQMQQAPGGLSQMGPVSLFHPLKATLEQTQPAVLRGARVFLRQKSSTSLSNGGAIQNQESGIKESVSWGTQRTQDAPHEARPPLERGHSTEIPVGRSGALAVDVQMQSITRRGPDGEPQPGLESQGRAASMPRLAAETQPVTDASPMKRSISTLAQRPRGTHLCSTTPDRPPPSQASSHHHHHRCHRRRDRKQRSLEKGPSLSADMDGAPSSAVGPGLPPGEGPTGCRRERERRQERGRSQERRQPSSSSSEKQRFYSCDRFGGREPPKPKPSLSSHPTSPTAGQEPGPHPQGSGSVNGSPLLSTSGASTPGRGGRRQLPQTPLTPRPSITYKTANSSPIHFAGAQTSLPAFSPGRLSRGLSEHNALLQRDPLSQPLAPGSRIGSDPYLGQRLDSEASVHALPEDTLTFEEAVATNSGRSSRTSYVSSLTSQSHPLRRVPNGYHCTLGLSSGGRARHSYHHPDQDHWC

| Compound | Calcium channel blocking activity [1] | Recovery relative to MVIIA [2] | Analgesic effect on cold allodynia (Sprague-Dawley male rats [3]) | Withdrawal latency, plantar test (ICR mice [4]) | Current-voltage curve [1] | IC50 ([1]; read-out: IC50 from dose-inhibition curve) | 50% withdrawal threshold, mechanical allodynia (Sprague-Dawley male rats [5]) | Withdrawal latency, tail-flick test (ICR mice [6]) | Cumulative pain response, glutamate-induced (ICR mice [7]) | Mean arterial pressure (MAP) time course (Sprague-Dawley male rats [8]) | Count of writhing responses (ICR mice [9]) | Cumulative pain response, substance P-induced (ICR mice [10]) | Dissociation on washout [2] | Analgesic effect on warm allodynia (Sprague-Dawley male rats [11]) | Cumulative pain response, formalin test (ICR mice [12]) | Dose dependence of analgesic effect, formalin test (ICR mice [12]) | Pain behaviors in the second phase, formalin test (ICR mice [12]) | Arterial pressure after lapse of time (Sprague-Dawley male rats [8]) |
| --- | --- | --- | --- | --- | --- | --- | --- | --- | --- | --- | --- | --- | --- | --- | --- | --- | --- | --- |
| CKGKGAKCSRIAYNCCTGSCRSGKC-NH2 [Chimera-MFMM] | significant calcium channel blocking activity | ~2 fold | – | – | – | – | – | – | – | – | – | – | – | – | – | – | – | – |
| CC[C@H](C)[C@@H]1NC(=O)[C@H](CCCNC(=N)N)NC(=O)[C@H](CO)NC(=O)[C@@H]2CSSC[C@@H]3NC(=O)[C@H](CO)NC(=O)CNC(=O)[C@H]([C@@H](C)O)NC(=O)[C@H](CSSC[C@H](N)C(=O)N[C@@H](CCCCN)C(=O)NCC(=O)N[C@@H]([C@@H](C)O)C(=O)NCC(=O)N[C@@H](CCCCN)C(=O)N[C@@H](CO)C(=O)N2)NC(=O)[C@H](CSSC[C@@H](C(N)=O)NC(=O)[C@H](CCCCN)NC(=O)CNC(=O)[C@H](CO)NC(=O)[C@H](CCCNC(=N)N)NC3=O)NC(=O)[C@H](CC(N)=O)NC(=O)[C@H](Cc2ccc(O)cc2)NC(=O)[C@H](C)NC1=O [FVIA, CKGTGKSCSRIAYNCCTGSCRSGKC-NH2] | – | – | exhibits analgesic effects on cold and warm allodynia | not effective in increasing withdrawal latency | curve inhibition without the horizontal curve shift | 11.5 ± 1.4 nM | elevate 50% withdrawal threshold in a dose dependent manner | not effective in increasing withdrawal latency | significantly decreased cumulative pain response rate | much better recovery in MAP | significantly decreased | significantly decreased cumulative pain response rate | better dissociation comparing MVIIA washout | exhibits analgesic effects on cold and warm allodynia | significantly decreased cumulative pain response rate in both the first phase and the second phase | analgesic effect in a dose-dependent manner | completely prevented pain behaviors in the second phase | – |
| CSCC[C@@H]1NC(=O)[C@H](CC(C)C)NC(=O)[C@H](CCCNC(=N)N)NC(=O)[C@H](CO)NC(=O)[C@@H]2CSSC[C@@H]3NC(=O)[C@H](CO)NC(=O)CNC(=O)[C@H]([C@@H](C)O)NC(=O)[C@H](CSSC[C@H](N)C(=O)N[C@@H](CCCCN)C(=O)NCC(=O)N[C@@H](CCCCN)C(=O)NCC(=O)N[C@@H](C)C(=O)N[C@@H](CCCCN)C(=O)N2)NC(=O)[C@H](CSSC[C@@H](C(N)=O)NC(=O)[C@H](CCCCN)NC(=O)CNC(=O)[C@H](CO)NC(=O)[C@H](CCCNC(=N)N)NC3=O)NC(=O)[C@H](CC(=O)O)NC(=O)[C@H](Cc2ccc(O)cc2)NC1=O [MVIIA, CKGKGAKCSRLMYDCCTGSCRSGKC-NH2] | – | – | – | – | – | – | – | – | – | sharp decrease in MAP at an initial stage and slow recovery in MAP | – | – | – | – | – | – | – | around 60 mmHg |
